Measurements from patent publication US20020040031A1, “Methods for prevention of accumulation of amyloid beta peptide in the central nervous system” (priority 2000, published 2002).

Tests used:
[1] = system: sAPP secretion in PC12 cells; test: Time course of sAPP secretion in PC12 cells, Western immunoblotting (Example 2); type: cell-based; conditions: PC12 cells treated for 6, 12, 24, 48, or 72 hours; AIT-082 10 nM-100 μM; RPMI 1640 and 0.5% FBS
Experimental: To determine the time course of sAPP secretion after administration of AIT-082 or NGF to PC12 cells, an experiment similar to the experiment of Example 1 was carried out using multiple time points. Five to six million PC12 cells were treated in RPMI 1640 and 0.5% FBS with doses of AIT-082 (10 nM-100 μM). […] Levels of sAPP in samples from conditioned media and cell lysates were measured by Western immunoblotting with anti-sAPP antibody. When PC12 cells were treated with AIT-082 for 6, 12, 24, 48, or 72 hours, there was an increase in levels of secreted sAPP.

PC12 cells = test: NGF-mediated differentiation of PC12 cells (Example 2); type: cell-based
[2] = system: nerve growth factor (NGF), neurotrophin-3, and basic fibroblast growth factor (bFGF); conditions: at least three neurotrophins; reference 3; cited from earlier work
[3] = system: secretion of Aβ in cultured PC12 cells; test: Secretion of Aβ in cultured PC12 cells, sandwich ELISA (Example 3); type: cell-based; conditions: AIT-082 100 μg/ml, PC12 conditioned media
Experimental: To determine the effect of AIT-082 on Aβ levels, PC12 cells were treated with a high dose of AIT-082 (100 μg/ ml) and the conditioned media was analyzed for Aβ. Levels of total Aβ were measured using a sensitive sandwich ELISA. Experiments were done in triplicate and the values were obtained from known standards run in parallel with the samples as described previously (A. Becher et al., “The Synaptophysin-Synaptobrevin Complex: A Hallmark of Synaptic […] Maturation,” J. Neurosci. 19: 1922-1931).

[4] = system: sAPP secretion in PC12 cells; test: sAPP secretion in PC12 cells, Western immunoblot of conditioned media (Example 1); type: cell-based; conditions: for secretion of sAPP versus control: single agent, PC12 conditioned media, 48 hours, 22C11 immunoblot, NGF 10 and 50 ng/ml, bFGF 50 ng/ml, AIT-082 different doses
Experimental: Treatment of Cells and Preparation of Cell Extract. PC12 cells were first grown to 70-80% confluence in the regular medium. A day prior to the experiment, PC12 cells were subcultured uniformly onto the plate with minimum cellular aggregation/ clumping to approximately 1×10^6 cells per 60-mm plate. The PC12 cells were then subjected to treatments with either AIT-082, NGF, bFGF or a combination as previously described (4). AIT-082 was added into separate plates at […] different doses: 0, 5, 20, 30, 50, 100, 300 ng/ ml and also 1, 3, 10, 30, 100 μg/ml. For comparative purposes, cultures were treated with NGF at 10 and 50 ng/ml, and bFGF was used at 50 ng/ml. Additional cultures contained both AIT-082 (300 ng/ml) and either NGF (50 ng/ml) or bFGF (50 ng/ml). Following incubation for 48 hours, the conditioned medium from each plate was collected.
PAGE and Western Immunoblotting. Total proteins from the conditioned media were analyzed on a 12% polyacrylamide gel containing SDS (SDS-PAGE), and western blot analysis was performed in the Mini-PROTEAN II system of Bio-Rad as described previously (6). sAPP was detected using the 22C11 (Boehringer Mannheim, Indianapolis, Ind.). A biotinylated secondary antibody, horse anti-mouse (Boehringer Mannheim), was also used. The detection system was based on the avidin-biotinylated-complex (Vector labs, Burlingame, Calif.) and enzymatic color reactions.
Treatment of NGF or bFGF Results in a Substantial Increase in sAPP Secretion in PC12 Cells. In denaturing polyacrylamide gel, an equal amount of total protein was loaded from each of the conditioned medium samples. After 48 hours of incubation, 50 μg samples of conditioned media were subjected to SDS-PAGE (12%) and transferred to a nitrocellulose membrane. Protein size markers shown on the left of the blot from top to bottom are: 107, 74, 49.3, 36.4, and 28.5 kDa. For FIG. 1, the transferred proteins were probed with anti-APP antibody (22C11), and immunodetection was carried out by the enzymatic color method as described previously (5). Two distinct bands of 110 and 95 kDa were detected, which correspond to soluble APP derivatives (sAPP) arising from different alternate forms of APP and/or their posttranslationally modified derivatives.

[5] = system: sAPP release from PC12 cultures; conditions: previously shown, reference 7; cited from earlier work

| Molecule | levels of secreted sAPP [1] | effect of cotreatment on NGF-mediated differentiation (PC12 cells; AIT-082 cotreatment with NGF, PC12 cells) | expression of neurotrophins (NGF, neurotrophin-3, bFGF) [2] | Percent change from controls (total Aβ) [3] [%] | Levels of total Aβ ([3]; triplicate) [fmols/ml] | levels of extracellular sAPP versus control cultures (dose response, densitometry, FIG. 2) ([4]; AIT-082 5-300 ng/ml, PC12) | secretion of sAPP versus control [4] | differentiation phenotype of PC12 cells (PC12 cells; NGF treatment alone) | release of sAPP from PC12 cultures [5] |
| --- | --- | --- | --- | --- | --- | --- | --- | --- | --- |
| O=C(CCn1cnc2c(=O)[nH]cnc21)Nc1ccc(C(=O)O)cc1 [AIT-082, N-4-carboxyphenyl-3-(6-oxohydropurin-9-yl) propanamide] | increase | enhanced NGF-mediated differentiation | induce the expression | −20 | 136 ± 6 | statistically significantly higher | significant increase |  |  |
| NGF: Nerve growth factor procured from Life Technologies |  |  |  |  |  |  | significant increase | sympathetic neuronal phenotypes | induce the release of sAPP |
| bFGF: basic fibroblast growth factor procured from Life Technologies |  |  |  |  |  |  | slight increase |  |  |
